ChEMBL document CHEMBL4622870, “Design, synthesis and evaluation of hydrazine and acyl hydrazone derivatives of 5-pyrrolidin-2-one as antifungal agents” (Bioorg Med Chem Lett, 2020)

Key:
Kluyveromyces marxianus [1] = test: Antifungal activity against Candida pseudotropicalis assessed as fungal growth inhibition at 100 ug/ml by micro-dilution method relative to control; type: functional; conditions: read-out: GI
Aspergillus oryzae [2] = test: Antifungal activity against Aspergillus oryzae assessed as fungal growth inhibition at 100 ug/ml by micro-dilution method relative to control; type: functional; conditions: read-out: GI
Fusarium solani [3] = test: Antifungal activity against Fusarium solani assessed as fungal growth inhibition at 100 ug/ml by micro-dilution method relative to control; type: functional; conditions: read-out: GI
Geotrichum candidum [4] = test: Antifungal activity against Geotrichum candidum assessed as fungal growth inhibition by micro-dilution method; type: functional
Paecilomyces variotii [5] = test: Antifungal activity against Paecilomyces variotii assessed as fungal growth inhibition at 100 ug/ml by micro-dilution method relative to control; type: functional; conditions: read-out: GI
Fusarium solani [6] = test: Antifungal activity against Fusarium solani assessed as fungal growth inhibition by micro-dilution method; type: functional
HEK293 = test: Cytotoxicity against human HEK293 cells assessed as effect on cell viability measured after 72 hrs by MTS assay; type: cell-based; conditions: hek293, 72 h
Sclerotinia sclerotiorum [7] = test: Antifungal activity against Sclerotinia sclerotiorum assessed as fungal growth inhibition at 100 ug/ml by micro-dilution method relative to control; type: functional; conditions: read-out: GI
Pichia kudriavzevii = test: Antifungal activity against Candida krusei assessed as fungal growth inhibition at 100 ug/ml by micro-dilution method relative to control; type: functional; conditions: read-out: GI
Alternaria alternata [8] = test: Antifungal activity against Alternaria alternata assessed as fungal growth inhibition at 100 ug/ml by micro-dilution method relative to control; type: functional; conditions: read-out: GI
[9] = test system: Cladosporium cladosporioides; test: Antifungal activity against Cladosporium cladosporioides assessed as fungal growth inhibition at 100 ug/ml by micro-dilution method relative to control; type: functional; conditions: read-out: GI
Botrytis cinerea = test: Antifungal activity against Botrytis cinerea assessed as fungal growth inhibition at 100 ug/ml by micro-dilution method relative to control; type: functional; conditions: read-out: GI
Geotrichum candidum [10] = test: Antifungal activity against Geotrichum candidum assessed as fungal growth inhibition at 100 ug/ml by micro-dilution method relative to control; type: functional; conditions: read-out: GI
Candida tropicalis [11] = test: Antifungal activity against Candida tropicalis assessed as fungal growth inhibition at 100 ug/ml by micro-dilution method relative to control; type: functional; conditions: read-out: GI
Geotrichum candidum [12] = test: Antifungal activity against Geotrichum candidum assessed as fungal growth inhibition at 50 ug/ml by micro-dilution method relative to control; type: functional; conditions: read-out: GI
Penicillium ochrochloron [13] = test: Antifungal activity against Penicillium ochrochloron assessed as fungal growth inhibition at 100 ug/ml by micro-dilution method relative to control; type: functional; conditions: read-out: GI
Paecilomyces variotii [14] = test: Antifungal activity against Paecilomyces variotii assessed as fungal growth inhibition by micro-dilution method; type: functional
Kluyveromyces marxianus [15] = test: Antifungal activity against Candida pseudotropicalis assessed as fungal growth inhibition by micro-dilution method; type: functional
Penicillium ochrochloron [16] = test: Antifungal activity against Penicillium ochrochloron assessed as fungal growth inhibition by micro-dilution method; type: functional
Candida tropicalis [17] = test: Antifungal activity against Candida tropicalis assessed as fungal growth inhibition by micro-dilution method; type: functional
Sclerotinia sclerotiorum [18] = test: Antifungal activity against Sclerotinia sclerotiorum assessed as fungal growth inhibition by micro-dilution method; type: functional
Aspergillus oryzae [19] = test: Antifungal activity against Aspergillus oryzae assessed as fungal growth inhibition by micro-dilution method; type: functional
Alternaria alternata [20] = test: Antifungal activity against Alternaria alternata assessed as fungal growth inhibition by micro-dilution method; type: functional
[21] = test system: Cladosporium cladosporioides; test: Antifungal activity against Cladosporium cladosporioides assessed as fungal growth inhibition by micro-dilution method; type: functional

| MIC50 (Geotrichum candidum [4]) | MIC50 (Fusarium solani [6]) | MIC50 (Penicillium ochrochloron [16]) | SMILES | inhibition of growth at 100 µg/mL (Kluyveromyces marxianus [1]) | inhibition of growth at 100 µg/mL (Aspergillus oryzae [2]) | inhibition of growth at 100 µg/mL (Fusarium solani [3]) | inhibition of growth at 100 µg/mL (Paecilomyces variotii [5]) | Activity (HEK293) | inhibition of growth at 100 µg/mL (Sclerotinia sclerotiorum [7]) | inhibition of growth at 100 µg/mL (Pichia kudriavzevii) | inhibition of growth at 100 µg/mL (Alternaria alternata [8]) | inhibition of growth at 100 µg/mL [9] | inhibition of growth at 100 µg/mL (Botrytis cinerea) | inhibition of growth at 100 µg/mL (Geotrichum candidum [10]) | inhibition of growth at 100 µg/mL (Candida tropicalis [11]) | inhibition of growth at 100 µg/mL (Penicillium ochrochloron [13]) | other results |
| --- | --- | --- | --- | --- | --- | --- | --- | --- | --- | --- | --- | --- | --- | --- | --- | --- | --- |
| > 75 µg/mL | > 75 µg/mL |  | O=C1CC[C@@H](C(=O)N/N=C/c2ccc(CO)o2)N1 | 28% | 0% | 72% | 45% | Non-Toxic | 0% | 66% | 42% | 0% | 0% | 88% | 38% | 28% | inhibition of growth at 50 µg/mL (Geotrichum candidum [12]): < 10% |
|  | 51.6 µg/mL |  | O=C1CC[C@@H](C(=O)N/N=C/c2ccccc2[N+](=O)[O-])N1 | 35% | 32% | 100% | 3% | Non-Toxic | 21% | 0% | 0% | 0% | 27% | 50% | 19% | 13% |  |
|  | 18.5 µg/mL | 4.4 µg/mL | O=C1CCC(NNc2ccccc2)N1 (racemic) | 96% | 71% | 100% | 78% | Non-Toxic | 76% | 35% | 82% | 44% | 62% | 0% | 89% | 90% | MIC50 (Paecilomyces variotii [14]): 7.8 µg/mL; MIC50 (Kluyveromyces marxianus [15]): 0.6 µg/mL; MIC50 (Candida tropicalis [17]): 58.5 µg/mL; MIC50 (Sclerotinia sclerotiorum [18]): 23 µg/mL; MIC50 (Aspergillus oryzae [19]): 43.4 µg/mL; MIC50 (Alternaria alternata [20]): 3.6 µg/mL |
| 1.8 µg/mL |  | 15.4 µg/mL | O=C1CC[C@@H](C(=O)N/N=C/c2ccc(Cl)cc2)N1 | 50% | 0% | 61% | 27% | Non-Toxic | 58% | 26% | 20% | 98% | 34% | 92% | 47% | 92% | MIC50 [21]: 23.9 µg/mL |
|  | 11.7 µg/mL |  | O=C1CCC(NNc2ccc(C(F)(F)F)cc2)N1 (racemic) | 38% | 37% | 100% | 82% | Non-Toxic | 40% | 51% | 2% | 81% | 39% | 22% | 51% | 35% | MIC50 (Paecilomyces variotii [14]): 2 µg/mL; MIC50 [21]: 3.4 µg/mL |
|  | 24.5 µg/mL | 21.1 µg/mL | O=C1CCC(NNc2cc(F)ccc2F)N1 (racemic) | 65% | 0% | 95% | 17% | Non-Toxic | 28% | 20% | 72% | 29% | 0% | 25% | 62% | 73% | MIC50 (Alternaria alternata [20]): 18.6 µg/mL |
|  | 31 µg/mL |  | CN(NC1CCC(=O)N1)c1ccccc1 (racemic) | 61% | 45% | 100% | 70% | Non-Toxic | 46% | 20% | 0% | 42% | 20% | 18% | 20% | 56% | MIC50 (Paecilomyces variotii [14]): 14.8 µg/mL |
| > 75 µg/mL |  |  | O=C1CC[C@@H](C(=O)N/N=C/c2ccccc2)N1 | 7% | 0% | 59% | 46% | Non-Toxic | 0% | 40% | 20% | 12% | 0% | 83% | 15% | 25% | inhibition of growth at 50 µg/mL (Geotrichum candidum [12]): < 10% |
|  | 59.1 µg/mL |  | O=C1CC[C@@H](C(=O)N/N=C/c2ccc([N+](=O)[O-])cc2)N1 | 38% | 0% | 100% | 20% | Non-Toxic | 9% | 22% | 30% | 40% | 0% | 30% | 42% | 14% |  |
| 5.9 µg/mL | 6.5 µg/mL | 5.3 µg/mL | O=C1CC[C@@H](C(=O)N/N=C/c2ccc(Br)cc2)N1 | 2% | 43% | 100% | 0% | Non-Toxic | 37% | 0% | 0% | 72% | 40% | 100% | 92% | 77% | MIC50 (Candida tropicalis [17]): > 75 µg/mL; MIC50 [21]: 53 µg/mL |
| 1.8 µg/mL |  |  | O=C1CC[C@@H](C(=O)N/N=C/c2c(Cl)cccc2Cl)N1 | 32% | 12% | 60% | 13% | Non-Toxic | 58% | 0% | 0% | 12% | 0% | 73% | 16% | 22% |  |
|  | 102 µg/mL |  | Cc1ccc(/C=N/NC(=O)[C@@H]2CCC(=O)N2)cc1 | 32% | 11% | 94% | 35% | Non-Toxic | 0% | 28% | 0% | 5% | 0% | 28% | 33% | 0% |  |

| SMILES | MIC50 (Geotrichum candidum [4]) | MIC50 (Fusarium solani [6]) | MIC50 (Penicillium ochrochloron [16]) | inhibition of growth at 100 µg/mL (Kluyveromyces marxianus [1]) | inhibition of growth at 100 µg/mL (Aspergillus oryzae [2]) | inhibition of growth at 100 µg/mL (Fusarium solani [3]) | inhibition of growth at 100 µg/mL (Paecilomyces variotii [5]) | Activity (HEK293) | inhibition of growth at 100 µg/mL (Sclerotinia sclerotiorum [7]) | inhibition of growth at 100 µg/mL (Pichia kudriavzevii) | inhibition of growth at 100 µg/mL (Alternaria alternata [8]) | inhibition of growth at 100 µg/mL [9] | inhibition of growth at 100 µg/mL (Botrytis cinerea) | inhibition of growth at 100 µg/mL (Geotrichum candidum [10]) | inhibition of growth at 100 µg/mL (Candida tropicalis [11]) | inhibition of growth at 100 µg/mL (Penicillium ochrochloron [13]) | other results |
| --- | --- | --- | --- | --- | --- | --- | --- | --- | --- | --- | --- | --- | --- | --- | --- | --- | --- |
| CC(=O)N1CCN(c2ccc(OCC3COC(Cn4ccnc4)(c4ccc(Cl)cc4Cl)O3)cc2)CC1 (stereo not given) [KETOCONAZOLE] | 1.5 µg/mL |  |  |  |  |  |  |  |  |  |  |  |  |  |  |  | MIC50 (Kluyveromyces marxianus [15]): 9.6 µg/mL; MIC50 (Candida tropicalis [17]): 15.9 µg/mL |
| Cc1cc(O)no1 [HYMEXAZOL] | > 50 µg/mL | 15.6 µg/mL | 62.2 µg/mL |  |  |  |  |  |  |  |  |  |  |  |  |  | MIC50 (Paecilomyces variotii [14]): 57.2 µg/mL; MIC50 (Sclerotinia sclerotiorum [18]): 26.5 µg/mL; MIC50 (Aspergillus oryzae [19]): 45.7 µg/mL; MIC50 (Alternaria alternata [20]): 38.3 µg/mL; MIC50 [21]: 28.9 µg/mL |
